In article PMC8596125, “Self‐Stabilized Supramolecular Assemblies Constructed from PEGylated Dendritic Peptide Conjugate for Augmenting Tumor Retention and Therapy” (Advanced Science, 2021):
Values joined by “and” are separate entries in the source; they are usually repeats but may differ in a detail not shown here. Equal values may be shown once.

Columns and labels:
Design in all cases: species or system mouse
[1] = system: 4T1 breast tumors; assay: In vivo / ex vivo fluorescence imaging and tumor retention; details: BALB/c nude mice with 4T1 tumors, i.v. 5 mg Ppa kg-1, in vivo fluorescence imaging up to 14 d, n = 3
From the text: Where AS is the absorbance of the sample, A100 is the absorbance of lysed erythrocytes in H2O (a positive control), and A0 is the absorbance of 0% hemolysis in PBS (a negative control).
1.3.12 Skin photosensitization
The backs of healthy BALB/c mice were depilated 3 days before treatment to ensure that all injures had recovered. The shaved mice were randomly divided into 4 groups: (a) SSAs + laser irradiation; (b) Ppa + laser irradiation; (c) laser irradiation; (d) control (without any treatment). The dose of Ppa was 5 mg Ppa kg-1. Right after administration, the anesthetized mice were irradiated by a 660 nm laser (0.26 W cm-2, […], 108 J cm-2). […] The degree of skin response was examined and scored according to Table S5, and Paraffin sections of the skin were stained with hematoxylin and eosin (H&E) according to the manufacturer's instructions.[3] […]
Plasma was diluted to 50-fold with DMSO for fluorescent measurements using a BioTek plate reader. The pharmacokinetic parameters were calculated using a two-compartment model by WinNonlin 5.2 software.
1.3.14 In vivo fluorescence imaging and biodistribution […]
Fluorescence signals were detected at 1 h, 3 h, 12h, 24 h, 2 d, 3 d, 5 d, 7 d, 9 d, 11 d […]
and 14 d post-intravenous injection by a small-animal in vivo fluorescence imaging system (CRi Maestro EX, USA) with excitation at […]. […]

[2] = system: A549 human non-small cell lung tumor; assay: In vivo photodynamic therapy, A549 xenograft model; details: nude mice with A549 tumors, i.v. 5 mg Ppa kg-1 on day 1, 14, 21, 28, 660 nm 200 mW cm-2 8 min, n = 5
Procedure: and stained by the terminal deoxynucleotidyl transferase dUTP nick end labeling (TUNEL) and CD31 for histology studies.
For studies with an A549 human non-small cell lung tumor model, nude mice were randomly allocated into three groups (n= 5): saline (control), Ppa, and SSAs when the average tumor volume reached 50 mm3. Saline, Ppa, and SSAs (5 mg Ppa kg-1) were injected intravenously on day 1, 14, 21 and 28. At 3 d post injection, the tumors from groups Ppa, and SSAs were irradiated with a 660 nm laser (200 mW cm-2, 8 min). The tumor growth was monitored and the tumor size was measured every 3 d. The mice were sacrificed on day 61 after treatment.
1.3.16 RNA-seq and enriched signaling pathways analysis
4T1 cells (106/culture) were treated by SSAs and free Ppa with or without laser.
Untreated cells were set as a control. Total RNA was extracted (TRIzol Reagent, Thermo Fisher Scientific, USA) and rRNAs were removed by Ribo-zero™ rRNA Removal Kit (Epicentre, CA, USA). Relative abundance of transcripts was calculated with kallisto. The raw RNA-Seq count data were processed by DESeq R packages to obtain differentially expressed genes (DEGs).[4] […]
Enrichment analyses were performed according to the KEGG database. For gene set enrichment analysis (GSEA), all gene sets were analyzed against the curated gene sets […]

[3] = In vivo pharmacokinetics; details: healthy BALB/c mice, single i.v. 5 mg Ppa kg-1, plasma fluorescence, two-compartment model, mean ± s.d., n = 7
Procedure: 1.3.13 In vivo pharmacokinetics
Healthy pathogen-free BALB/c mice (5-6 weeks, female) were used to determine the pharmacokinetics of SSAs (n = 7). The mice were intravenously injected with Ppa and SSAs (5 mg Ppa kg-1), respectively. Blood (20 μL) was collected at diﬀerent time […]
Plasma was diluted to 50-fold with DMSO for fluorescent measurements using a BioTek plate reader. The pharmacokinetic parameters were calculated using a two-compartment model by WinNonlin 5.2 software. […]

C=Cc1c(C)c2cc3nc(c4c5[nH]c(cc6nc(cc1[nH]2)C(C)=C6CC)c(C)c5C(=O)C4)[C@@H](CCC(=O)O)[C@@H]3C [Ppa, pyropheophorbide a]
Persistence of the fluorescence signal in tumors [1]: disappear on day 3 after injection | Tumor growth [2]: modest tumor growth suppression | AUC (area under the drug concentration) [3]: 2600 ± 110 ng·h/mL | MRT (mean residence time) [3]: 3.64 ± 1.02 h | t1/2 (half-life of the drug) [3]: 4.29 ± 0.47 h and 4.29 h
